Results as given in patent US8148373B2, “Compounds” (AstraZeneca AB, priority 2008, dated 2012).

Tests used:
[1] = target: T1, Adrenergic β2 (H292 cells) (Homo sapiens, UniProt P07550); assay: Adrenergic β2 Mediated cAMP Production, single concentration 1 μM; type: cell-based; details: percentage of the maximum response generated by 1E-07M formoterol; for activation at 1 µM: NCI-H292, 1 μM compound, read-out: β2 (% effect at 1 μM); for β2 (% effect at 1 μM): 1 μM compound
T1 construct: endogenous in cells; host or cells: H292 cells
Summary of the method: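 cAMP was quantified by AlphaScreen in lysates of H292 cells and reported as a percentage of the 1E-07M formoterol maximum. Before lysis the cells, seeded the previous day, received rolipram (300 μM final) and then test compound at a final 1 μM in 1% DMSO for 60 min at room temperature.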

[2] = target: T2, human muscarinic acetylcholine M3 receptor (M3-ACh) (Homo sapiens, UniProt P20309); assay: Muscarinic 3 Receptor Binding Assay, % inhibition specific binding at 1 μM; details: 1 μM compound, % inhibition specific [3H]-NMS binding
T2 construct: expressed in transfected cells; host or cells: CHO-K1 (Chinese Hamster Ovary) cell membranes
Summary of the method: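 Value is % inhibition of specific [3H]N-methyl scopolamine binding (0.1 nM, quarter Kd) by 1 μM compound, using SPA beads precoated with human M3-expressing CHO-K1 membranes. Buffer HEPES pH 7.4 with MgCl2 and 1% DMSO; 16 h at room temperature; 1 μM atropine sets non-specific binding.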

T1 sequence (P07550 whole entry): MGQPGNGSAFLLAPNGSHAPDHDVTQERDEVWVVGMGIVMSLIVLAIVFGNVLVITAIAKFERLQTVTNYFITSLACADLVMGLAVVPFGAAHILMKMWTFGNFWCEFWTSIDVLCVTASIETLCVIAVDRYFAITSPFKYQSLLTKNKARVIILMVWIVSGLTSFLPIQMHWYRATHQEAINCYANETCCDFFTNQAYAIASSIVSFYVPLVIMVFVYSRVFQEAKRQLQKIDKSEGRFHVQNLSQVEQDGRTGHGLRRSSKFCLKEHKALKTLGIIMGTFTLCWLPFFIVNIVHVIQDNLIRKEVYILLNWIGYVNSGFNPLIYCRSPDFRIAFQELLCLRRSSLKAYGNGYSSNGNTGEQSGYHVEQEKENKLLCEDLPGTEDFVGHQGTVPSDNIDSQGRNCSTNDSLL
T2 sequence (P20309 whole entry): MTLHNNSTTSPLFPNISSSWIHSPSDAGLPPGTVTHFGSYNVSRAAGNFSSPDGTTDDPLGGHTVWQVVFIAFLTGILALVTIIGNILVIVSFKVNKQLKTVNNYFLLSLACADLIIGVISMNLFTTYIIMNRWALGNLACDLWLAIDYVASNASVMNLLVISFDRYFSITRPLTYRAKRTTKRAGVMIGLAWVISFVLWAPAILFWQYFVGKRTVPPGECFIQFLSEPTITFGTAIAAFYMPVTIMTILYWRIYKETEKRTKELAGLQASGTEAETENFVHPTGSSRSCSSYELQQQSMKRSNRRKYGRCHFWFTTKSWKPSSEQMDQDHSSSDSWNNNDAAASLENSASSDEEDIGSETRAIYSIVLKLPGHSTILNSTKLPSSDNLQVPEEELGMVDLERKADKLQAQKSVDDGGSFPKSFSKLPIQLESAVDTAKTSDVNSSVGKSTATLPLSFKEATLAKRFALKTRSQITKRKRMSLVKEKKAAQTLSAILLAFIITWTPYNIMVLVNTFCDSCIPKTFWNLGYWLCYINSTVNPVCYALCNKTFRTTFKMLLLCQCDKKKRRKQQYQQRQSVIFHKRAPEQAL

| activation at 1 µM [1] | inhibition at 1 µM [2] | M3 (% inhibition at 1 μM) [2] | SMILES | β2 (% effect at 1 μM) [1] | M3 (% inhibition at 1 μM) ([2]; 1 µM) |
| --- | --- | --- | --- | --- | --- |
| 89% | 11% |  | O=C(c1cccc2[nH]ccc12)N1CCOC2(CCN(Cc3cc(F)cc(CCNC[C@H](O)c4ccc(O)c5[nH]c(=O)sc45)c3)CC2)C1 [Example 165, (R)-7-(2-(3-((4-(1H-indole-4-carbonyl)-1-oxa-4,9-diazaspiro[5.5]undecan-9-yl)methyl)-5-fluorophenethylamino)-1-hydroxyethyl)-4-hydroxybenzo[d]thiazol-2(3H)-one] |  |  |
| 95% | 69% |  | Cc1nc(CC(=O)N2CCOC3(CCN(Cc4cc(F)cc(CCNC[C@H](O)c5ccc(O)c6[nH]c(=O)sc56)c4)CC3)C2)cs1 [Example 166, (R)-7-(2-(3-fluoro-5-((4-(2-(2-methylthiazol-4-yl)acetyl)-1-oxa-4,9-diazaspiro[5.5]undecan-9-yl)methyl)phenethylamino)-1-hydroxyethyl)-4-hydroxybenzo[d]thiazol-2(3H)-one] |  |  |
| 100% | 8% |  | Cc1noc(C)c1CC(=O)N1CCOC2(CCN(Cc3cc(F)cc(CCNC[C@H](O)c4ccc(O)c5[nH]c(=O)sc45)c3)CC2)C1 [Example 167, (R)-7-(2-(3-((4-(2-(3,5-dimethylisoxazol-4-yl)acetyl)-1-oxa-4,9-diazaspiro[5.5]undecan-9-yl)methyl)-5-fluorophenethylamino)-1-hydroxyethyl)-4-hydroxybenzo[d]thiazol-2(3H)-one] |  |  |
| 95% | 29% |  | O=C(Cn1ccc2cccc(Cl)c21)N1CCOC2(CCN(Cc3cc(F)cc(CCNC[C@H](O)c4ccc(O)c5[nH]c(=O)sc45)c3)CC2)C1 [Example 168, (R)-7-(2-(3-((4-(2-(7-chloro-1H-indol-1-yl)acetyl)-1-oxa-4,9-diazaspiro[5.5]undecan-9-yl)methyl)-5-fluorophenethylamino)-1-hydroxyethyl)-4-hydroxybenzo[d]thiazol-2(3H)-one] |  |  |
|  |  |  | O=C(c1ccc(-c2ccccc2)cc1)N1CCOC2(CCN(Cc3cc(F)cc(CCNC[C@H](O)c4ccc(O)c5[nH]c(=O)sc45)c3)CC2)C1 [Example 169, (R)-7-(2-(3-((4-(biphenylcarbonyl)-1-oxa-4,9-diazaspiro[5.5]undecan-9-yl)methyl)-5-fluorophenethylamino)-1-hydroxyethyl)-4-hydroxybenzo[d]thiazol-2(3H)-one] | 92% | −2% |
| 102% | 42% |  | Cc1nn(-c2ccccc2)nc1C(=O)N1CCOC2(CCN(Cc3cc(F)cc(CCNC[C@H](O)c4ccc(O)c5[nH]c(=O)sc45)c3)CC2)C1 [Example 170, (R)-7-(2-(3-fluoro-5-((4-(5-methyl-2-phenyl-2H-1,2,3-triazole-4-carbonyl)-1-oxa-4,9-diazaspiro[5.5]undecan-9-yl)methyl)phenethylamino)-1-hydroxyethyl)-4-hydroxybenzo[d]thiazol-2(3H)-one] |  |  |
|  |  |  | O=C(c1ccc(-c2ccccc2)cc1)N1CCOC2(CCN(Cc3cc(F)cc(CCNC[C@H](O)c4ccc(O)c5[nH]c(=O)sc45)c3)CC2)C1 [Example 171, (R)-7-(2-(3-((4-(biphenylcarbonyl)-1-oxa-4,9-diazaspiro[5.5]undecan-9-yl)methyl)-5-fluorophenethylamino)-1-hydroxyethyl)-4-hydroxybenzo[d]thiazol-2(3H)-one] | 86% | 11% |
| 98% | 19% |  | O=C(c1cnc2ccccc2c1)N1CCOC2(CCN(Cc3cc(F)cc(CCNC[C@H](O)c4ccc(O)c5[nH]c(=O)sc45)c3)CC2)C1 [Example 172, (R)-7-(2-(3-fluoro-5-((4-(quinoline-3-carbonyl)-1-oxa-4,9-diazaspiro[5.5]undecan-9-yl)methyl)phenethylamino)-1-hydroxyethyl)-4-hydroxybenzo[d]thiazol-2(3H)-one] |  |  |
| 89% | 41% |  | O=C(COCCc1ccccc1)N1CCOC2(CCN(Cc3cc(F)cc(CCNC[C@H](O)c4ccc(O)c5[nH]c(=O)sc45)c3)CC2)C1 [Example 174, (R)-7-(2-(3-fluoro-5-((4-(2-phenethoxyacetyl)-1-oxa-4,9-diazaspiro[5.5]undecan-9-yl)methyl)phenethylamino)-1-hydroxyethyl)-4-hydroxybenzo[d]thiazol-2(3H)-one] |  |  |
| 94% | 3% |  | O=C(c1cnc(-c2ccccc2)[nH]1)N1CCOC2(CCN(Cc3cc(F)cc(CCNC[C@H](O)c4ccc(O)c5[nH]c(=O)sc45)c3)CC2)C1 [Example 175, (R)-7-(2-(3-fluoro-5-((4-(2-phenyl-1H-imidazole-5-carbonyl)-1-oxa-4,9-diazaspiro[5.5]undecan-9-yl)methyl)phenethylamino)-1-hydroxyethyl)-4-hydroxybenzo[d]thiazol-2(3H)-one] |  |  |
| 87% | 16% |  | CC(C)(C(=O)N1CCOC2(CCN(Cc3cc(F)cc(CCNC[C@H](O)c4ccc(O)c5[nH]c(=O)sc45)c3)CC2)C1)c1ccccc1 [Example 176, (R)-7-(2-(3-fluoro-5-((4-(2-methyl-2-phenylpropanoyl)-1-oxa-4,9-diazaspiro[5.5]undecan-9-yl)methyl)phenethylamino)-1-hydroxyethyl)-4-hydroxybenzo[d]thiazol-2(3H)-one] |  |  |
| 78% | 1% |  | O=C(Cn1c(C(F)(F)F)nc2ccccc21)N1CCOC2(CCN(Cc3cc(F)cc(CCNC[C@H](O)c4ccc(O)c5[nH]c(=O)sc45)c3)CC2)C1 [Example 177, (R)-7-(2-(3-fluoro-5-((4-(2-(2-(trifluoromethyl)-1H-benzo[d]imidazol-1-yl)acetyl)-1-oxa-4,9-diazaspiro[5.5]undecan-9-yl)methyl)phenethylamino)-1-hydroxyethyl)-4-hydroxybenzo[d]thiazol-2(3H)-one] |  |  |
| 95% | 66% |  | CC(C)c1cc(C(=O)N2CCOC3(CCN(Cc4cc(F)cc(CCNC[C@H](O)c5ccc(O)c6[nH]c(=O)sc56)c4)CC3)C2)no1 [Example 179, (R)-7-(2-(3-fluoro-5-((4-(5-isopropylisoxazole-3-carbonyl)-1-oxa-4,9-diazaspiro[5.5]undecan-9-yl)methyl)phenethylamino)-1-hydroxyethyl)-4-hydroxybenzo[d]thiazol-2(3H)-one] |  |  |
| 92% | 51% |  | Cc1cc(C(=O)N2CCOC3(CCN(Cc4cc(F)cc(CCNC[C@H](O)c5ccc(O)c6[nH]c(=O)sc56)c4)CC3)C2)oc1C [Example 180, (R)-7-(2-(3-((4-(4,5-dimethylfuran-2-carbonyl)-1-oxa-4,9-diazaspiro[5.5]undecan-9-yl)methyl)-5-fluorophenethylamino)-1-hydroxyethyl)-4-hydroxybenzo[d]thiazol-2(3H)-one] |  |  |
|  |  | 10% | O=C(COc1ccc(O)cc1)N1CCOC2(CCN(Cc3cc(F)cc(CCNC[C@H](O)c4ccc(O)c5[nH]c(=O)sc45)c3)CC2)C1 [Example 181, (R)-7-(2-(3-fluoro-5-((4-(2-(4-hydroxyphenoxy)acetyl)-1-oxa-4,9-diazaspiro[5.5]undecan-9-yl)methyl)phenethylamino)-1-hydroxyethyl)-4-hydroxybenzol[d]thiazol-2(3H)-one] | 86% |  |
| 88% | 16% |  | O=C(c1cc2cc(Cl)ccc2o1)N1CCOC2(CCN(Cc3cc(F)cc(CCNC[C@H](O)c4ccc(O)c5[nH]c(=O)sc45)c3)CC2)C1 [Example 182, (R)-7-(2-(3-((4-(5-chlorobenzofuran-2-carbonyl)-1-oxa-4,9-diazaspiro[5.5]undecan-9-yl)methyl)-5-fluorophenethylamino)-1-hydroxyethyl)-4-hydroxybenzo[d]thiazol-2(3H)-one] |  |  |
| 91% | 97% |  | O=C(CCCc1cccs1)N1CCOC2(CCN(CCCCCCCCCNC[C@H](O)c3ccc(O)c4[nH]c(=O)sc34)CC2)C1 [Example 183, (R)-4-hydroxy-7-(1-hydroxy-2-(9-(4-(4-(thiophen-2-yl)butanoyl)-1-oxa-4,9-diazaspiro[5.5]undecan-9-yl)nonylamino)ethyl)benzo[d]thiazol-2(3H)-one] |  |  |
| 89% | 96% |  | Cn1cccc1C(=O)N1CCOC2(CCN(CCCCCCCCCNC[C@H](O)c3ccc(O)c4[nH]c(=O)sc34)CC2)C1 [Example 184, (R)-4-hydroxy-7-(1-hydroxy-2-(9-(4-(1-methyl-1H-pyrrole-2-carbonyl)-1-oxa-4,9-diazaspiro[5.5]undecan-9-yl)nonylamino)ethyl)benzo[d]thiazol-2(3H)-one] |  |  |
| 81% | 95% |  | O=C(Cc1cccs1)N1CCOC2(CCN(CCCCCCCCCNC[C@H](O)c3ccc(O)c4[nH]c(=O)sc34)CC2)C1 [Example 185, (R)-4-hydroxy-7-(1-hydroxy-2-(9-(4-(2-(thiophen-2-yl)acetyl)-1-oxa-4,9-diazaspiro[5.5]undecan-9-yl)nonylamino)ethyl)benzo[d]thiazol-2(3H)-one] |  |  |
| 86% | 95% |  | O=C(Cc1ccccc1)N1CCOC2(CCN(CCCCCCCCCNC[C@H](O)c3ccc(O)c4[nH]c(=O)sc34)CC2)C1 [Example 186, (R)-4-hydroxy-7-(1-hydroxy-2-(9-(4-(2-phenylacetyl)-1-oxa-4,9-diazaspiro[5.5]undecan-9-yl)nonylamino)ethyl)benzo[d]thiazol-2(3H)-one] |  |  |
